Among the data in US10807959B2, “WDR5-MLL1 inhibitors and modulators” (Vanderbilt University, priority 2018, dated 2020) are Ki and GI50 values, retold here.

Some results are limits rather than exact numbers.

One experiment deals with WDR5 (Homo sapiens (Human), UniProt P61964). The experiment is described as follows: TR-FRET binding assay, displacement of 10mer-Thr-FAM probe from His-tagged WDR5. Particulars: Inhibition of WDR5 by TR-FRET assay. As for the experimental part: The LanthaScreenTM Elite Tb-anti-HIS Antibody from ThermoFisher Scientific was used for this purpose. […] The ratio of the 520 and 495 signals are then utilized to generate a dose-response curve to calculate an IC50 value. […] WDR[…] tag protein is used at 2 nM.
In general terms: TR-FRET usually uses a lanthanide donor and a delayed reading to cut background.

Another experiment concerns MV4:11 cells. The experiment is described as follows: Cellular viability / anti-proliferative activity, CellTiter-Glo, 7 day protocol. Particulars: 168 h; cellular proliferation of MV4:11 human cancer cell lines, 7 day. It counts as cell-based, human. How it is done:
Anti proliferative activity using MLL-harboring cell lines. MV4:11 cells are grown in RPMI-1640 media supplemented with 10% FBS and 1% penicillin/streptomycin. Viability assays are performed by dispensing […] into each well of an opaque 384-well plate and adding compounds at the indicated concentrations in a final volume of 32 μL and a final concentration of DMSO of 0.1% for all samples. After a set incubation period, 7 day protocol, the viability of cells in each well is assessed using the CellTiter-Glo assay (Promega), read on a GloMax 96 Microplane Luminometer (Promega). Serial dilutions of each cell type are included in all assays to generate standard curves and determine assay measurements are taken within the dynamic range of the instrument. GI50 values are calculated based on three biological replicates, each with three technical replicates. Data are expressed as mean plus/minus S.E.M.
For orientation: Cellular ATP, detected with luciferase, serves as a proxy for viable cell number.

For the molecule `COc1cc(OC)cc(C(C)NC(=O)c2cc(CNC3=NCCC3)cc(-c3ccc(F)nc3C)c2)c1` (centres unmarked) [Example 55, 3-(((3,4-Dihydro-2H-pyrrol-5-yl)amino)methyl)-N-(1-(3,5-dimethoxyphenyl)ethyl)-5-(6-fluoro-2-methylpyridin-3-yl)benzamide], affinity on WDR5 was put at a Ki of 0.011 µM. Further, it took 0.44 µM to inhibit growth in the experiment on MV4:11 cells by half (GI50).
On the same counts, the results for `COc1cc(CN(C)C(=O)c2cc(CNC3=NCCC3)cc(-c3ccc(F)nc3C)c2)cc(OC)c1` [Example 56, 3-(((3,4-Dihydro-2H-pyrrol-5-yl)amino)methyl)-N-(3,5-dimethoxybenzyl)-5-(6-fluoro-2-methylpyridin-3-yl)-N-methylbenzamide] are 0.02 µM and 6.4 µM.
On the same counts, the results for `COc1cc(CNC(=O)c2cc(CNC3=NCCC3)cc(-c3ccnc(C)c3)c2)cc(OC)c1` [Example 57, 3-(((3,4-Dihydro-2H-pyrrol-5-yl)amino)methyl)-N-(3,5-dimethoxybenzyl)-5-(2-methylpyridin-4-yl)benzamide] are 0.003 µM and 2.8 µM.
On the same counts, the results for `COc1cc(CNC(=O)c2cc(CNC3=NCCC3)cc(-c3ccc(F)cc3C)c2)cc(OC)c1` [Example 59, 5-(((3,4-Dihydro-2H-pyrrol-5-yl)amino)methyl)-N-(3,5-dimethoxybenzyl)-4′-fluoro-2′-methyl-[1,1′-biphenyl]-3-carboxamide] are 0.00074 µM and 0.79 µM.
Take `COc1cc(CNC(=O)c2cc(CNC3=NCCC3)cc(-c3ccc(F)nc3C)c2)cc(OC)c1` [Example 60, 3-(((3,4-Dihydro-2H-pyrrol-5-yl)amino)methyl)-N-(3,5-dimethoxybenzyl)-5-(6-fluoro-2-methylpyridin-3-yl)benzamide]: the Ki (usually a dissociation constant, usually derived from enzyme kinetics or from competition with a known ligand) on WDR5 was 0.00055 µM. Growth with MV4:11 cells was halved (GI50) at 0.36 µM.
In the case of `Cc1cc(CNC(=O)c2cc(CNC3=NCCC3)cc(-c3cccc(CO)c3)c2)ccc1Cl` [Example 63, N-(4-Chloro-3-methylbenzyl)-5-(((3,4-dihydro-2H-pyrrol-5-yl)amino)methyl)-3′-(hydroxymethyl)-[1,1′-biphenyl]-3-carboxamide], affinity on WDR5 was put at a Ki of 0.00088 µM. Besides, in the experiment with MV4:11 cells, it took 1.9 µM to inhibit growth by half (GI50).
On the same counts, the results for `Cc1cc(CNC(=O)c2cc(CNC3=NCCC3)cc(-c3cccnc3C(F)(F)F)c2)ccc1Cl` [Example 67, N-(4-Chloro-3-methylbenzyl)-3-(((3,4-dihydro-2H-pyrrol-5-yl)amino)methyl)-5-(2-(trifluoromethyl)pyridin-3-yl)benzamide] are below 0.0001 µM and 0.05 µM.
On the same counts, the results for `Cc1cc(CNC(=O)c2cc(CNC3=NCCC3)cc(-c3ccc(F)cc3C(F)(F)F)c2)ccc1Cl` [Example 68, N-(4-chloro-3-methylbenzyl)-5-(((3,4-dihydro-2H-pyrrol-5-yl)amino)methyl)-4′-fluoro-2′-(trifluoromethyl)-[1,1′-biphenyl]-3-carboxamide] are 0.0003 µM and 0.16 µM.
In turn, `COc1cc(F)ccc1-c1cc(CNC2=NCCC2)cc(C(=O)NCc2ccc(Cl)c(C)c2)c1` [Example 70, N-(4-chloro-3-methylbenzyl)-5-(((3,4-dihydro-2H-pyrrol-5-yl)amino)methyl)-4′-fluoro-2′-methoxy-[1,1′-biphenyl]-3-carboxamide] had a Ki at WDR5 of 0.0005 µM. Also, in the experiment on MV4:11 cells, growth was halved (GI50) at 0.46 µM.
On the same counts, the results for `Cc1cc(CNC(=O)c2cc(CNC3=NC(=O)CN3C)cc(-c3ccc(F)nc3C)c2)ccc1Cl` [Example 71, N-(4-Chloro-3-methylbenzyl)-3-(6-fluoro-2-methylpyridin-3-yl)-5-(((1-methyl-4-oxo-4,5-dihydro-1H-imidazol-2-yl)amino)methyl)benzamide] are 0.0066 µM and 5 µM.
For `Cc1cc(CNC(=O)c2cc(CNC3=NCCN3)cc(-c3ccc(F)nc3C)n2)ccc1Cl` [Example 74, N-(4-Chloro-3-methylbenzyl)-4-(((4,5-dihydro-1H-imidazol-2-yl)amino)methyl)-6′-fluoro-2′-methyl-[2,3′-bipyridine]-6-carboxamide] the same measures were 0.00046 µM and 0.68 µM.
On the same counts, the results for `Cc1ccnc(C(NC(=O)c2cc(CNC3=NCCC3)cc(-c3ccc(F)cc3C(F)(F)F)n2)C2CC2)c1` (centres unmarked) [Example 90, N-(Cyclopropyl(4-methylpyridin-2-yl)methyl)-4-(((3,4-dihydro-2H-pyrrol-5-yl)amino)methyl)-6-(4-fluoro-2-(trifluoromethyl)phenyl)picolinamide] are 0.0012 µM and 0.75 µM.
The molecule `COc1cc(CNC(=O)c2cc(CNC3=NCCC3)nc(-c3ccc(F)cc3C(F)(F)F)c2)cc(OC)c1` [Example 91, 2-(((3,4-dihydro-2H-pyrrol-5-yl)amino)methyl)-N-(3,5-dimethoxybenzyl)-6-(4-fluoro-2-(trifluoromethyl)phenyl)isonicotinamide] came in with a Ki at WDR5 of 0.0016 µM. In addition, the GI50 – broadly, the concentration giving 50% growth inhibition – with MV4:11 cells is 0.46 µM.
On the same counts, the results for `CCn1cc(-c2cc(CNC(=N)C3CC3)cc(C(=O)N[C@H](c3ccc(F)c(C)c3)C3CC3)c2)c(C(F)(F)F)n1` [Example 105, (S)-3-(Cyclopropanecarboximidamidomethyl)-N-(cyclopropyl(4-fluoro-3-methylphenyl)methyl)-5-(1-ethyl-3-(trifluoromethyl)-1H-pyrazol-4-yl)benzamide] are below 0.0001 µM and 0.01 µM.
Consider `CCn1cc(-c2cc(CNC(=N)C3CCC3)cc(C(=O)N[C@H](c3ccc(F)c(C)c3)C3CC3)c2)c(C(F)(F)F)n1` [Example 106, (S)-3-(Cyclobutanecarboximidamidomethyl)-N-(cyclopropyl(4-fluoro-3-methylphenyl)methyl)-5-(1-ethyl-3-(trifluoromethyl)-1H-pyrazol-4-yl)benzamide], for which the Ki at WDR5 is below 0.0001 µM. In the experiment with MV4:11 cells, this molecule came in with a GI50 of 0.03 µM.
On the same counts, the results for `COc1cc(OC)cc(C(C)NC(=O)c2cc(Cn3ccnc3C)cc(-c3ccc(F)nc3C)n2)c1` (centres unmarked) [Example 159, N-(1-(3,5-Dimethoxyphenyl)ethyl)-6′-fluoro-2′-methyl-4-((2-methyl-1H-imidazol-1-yl)methyl)-[2,3′-bipyridine]-6-carboxamide] are 0.0039 µM and 1.2 µM.
Consider `COc1cc(CNC(=O)c2cc(CNC3=NCCC3)cc(-c3ccc(F)cc3C)c2N)cc(OC)c1` [Example 168, 2-Amino-5-(((3,4-dihydro-2H-pyrrol-5-yl)amino)methyl)-N-(3,5-dimethoxybenzyl)-4′-fluoro-2′-methyl-[1,1′-biphenyl]-3-carboxamide], for which affinity on WDR5 was put at a Ki of 0.0052 µM. The molecule also came in with a GI50 in the experiment with MV4:11 cells of 4.8 µM.
`COc1cc(CNC(=O)c2cc(CNC3=NCCN3)cc(-c3ccc(F)cc3C)c2N)cc(OC)c1` [Example 169, 2-Amino-5-(((4,5-dihydro-1H-imidazol-2-yl)amino)methyl)-N-(3,5-dimethoxybenzyl)-4′-fluoro-2′-methyl-[1,1′-biphenyl]-3-carboxamide]: the Ki on WDR5 was found to be 0.0061 µM. The molecule also had a GI50 with MV4:11 cells of 14 µM.
As to `CNc1c(C(=O)N(C)Cc2cc(OC)cc(OC)c2)cc(CNC2=NCCC2)cc1-c1ccc(F)cc1C` [Example 170, 5-(((3,4-dihydro-2H-pyrrol-5-yl)amino)methyl)-N-(3,5-dimethoxybenzyl)-4′-fluoro-N,2′-dimethyl-2-(methylamino)-[1,1′-biphenyl]-3-carboxamide], the Ki on WDR5 is 0.019 µM. The molecule also displayed a GI50 with MV4:11 cells of 4.7 µM.
